# Experimental data as given in patent publication US20100249161A1, “2- ( 2 -HYDROXYPHENYL) -QUINAZOLIN-4-ONES USEFUL FOR TREATING OBESITY AND DIABETES” (priority 2006, published 2010).
row,SMILES,melting point [°C]
1,"Cc1c(F)cc(C(C)(C)C)c(O)c1-c1nc2ccc(F)cc2c(=O)[nH]1 [Example 3, 2-(-3-tert-Butyl-5-fluoro-2-hydroxy-6-methyl-phenyl)-6-fluoro-3H-quinazolin-4-one]",247 to 248
2,"CC(C)(C)c1cc2c(c(-c3nc4ccc(S(=O)(=O)C(F)(F)F)cc4c(=O)[nH]3)c1O)CCO2 [Example 7, 2-(6-tert-Butyl-5-hydroxy-2,3-dihydro-benzofuran-4-yl)-6-trifluoromethanesulfonyl-3H-quinazolin-4-one]",235 to 237
3,"CCc1c(Cl)cc(C(C)(C)C)c(O)c1-c1nc2ccc(S(=O)(=O)C(F)(F)F)cc2c(=O)[nH]1 [Example 8, 2-(-3-tert-Butyl-5-chloro-2-hydroxy-6-ethyl-phenyl)-6-trifluoromethanesulfonyl-3H-quinazolin-4-one]",285 to 286
4,"Cc1c(Cl)cc(C(C)(C)C)c(O)c1-c1nc2ccc(S(=O)(=O)C(F)(F)F)cc2c(=O)[nH]1 [Example 4, 2-(3-tert-Butyl-5-chloro-2-hydroxy-6-methyl-phenyl)-6-trifluoromethanesulfonyl-3H-quinazolin-4-one]",297 to 298
5,"Cc1c(F)cc(C(C)(C)C)c(O)c1-c1nc2ccc(S(=O)(=O)C(F)(F)F)cc2c(=O)[nH]1 [Example 6, 2-(3-tert-Butyl-5-fluoro-2-hydroxy-6-methyl-phenyl)-6-trifluoromethanesulfonyl-3H-quinazolin-4-one]",257 to 258
6,"Cc1c(Cl)cc(C(C)(C)C)c(O)c1-c1nc2ccc(F)cc2c(=O)[nH]1 [Example 2, 2-(3-tert-Butyl-5-chloro-2-hydroxy-6-methyl-phenyl)-6-fluoro-3H-quinazolin-4-one]",224 to 225
